# Test results published in patent US12421229B2, “Hydropyrido[1,2-α]pyrazine compounds for the treatment of autoimmune disease” (Hoffmann-La Roche Inc., priority 2019, dated 2025).
# pIC50: −log10 of the molar value.
# Molecular target: T1, human TLR8 (Homo sapiens, UniProt Q9NR97)
# T1 construct: host or cells: HEK293 (HEK-Blue hTLR8)
# T1 sequence (Q9NR97 27-1041): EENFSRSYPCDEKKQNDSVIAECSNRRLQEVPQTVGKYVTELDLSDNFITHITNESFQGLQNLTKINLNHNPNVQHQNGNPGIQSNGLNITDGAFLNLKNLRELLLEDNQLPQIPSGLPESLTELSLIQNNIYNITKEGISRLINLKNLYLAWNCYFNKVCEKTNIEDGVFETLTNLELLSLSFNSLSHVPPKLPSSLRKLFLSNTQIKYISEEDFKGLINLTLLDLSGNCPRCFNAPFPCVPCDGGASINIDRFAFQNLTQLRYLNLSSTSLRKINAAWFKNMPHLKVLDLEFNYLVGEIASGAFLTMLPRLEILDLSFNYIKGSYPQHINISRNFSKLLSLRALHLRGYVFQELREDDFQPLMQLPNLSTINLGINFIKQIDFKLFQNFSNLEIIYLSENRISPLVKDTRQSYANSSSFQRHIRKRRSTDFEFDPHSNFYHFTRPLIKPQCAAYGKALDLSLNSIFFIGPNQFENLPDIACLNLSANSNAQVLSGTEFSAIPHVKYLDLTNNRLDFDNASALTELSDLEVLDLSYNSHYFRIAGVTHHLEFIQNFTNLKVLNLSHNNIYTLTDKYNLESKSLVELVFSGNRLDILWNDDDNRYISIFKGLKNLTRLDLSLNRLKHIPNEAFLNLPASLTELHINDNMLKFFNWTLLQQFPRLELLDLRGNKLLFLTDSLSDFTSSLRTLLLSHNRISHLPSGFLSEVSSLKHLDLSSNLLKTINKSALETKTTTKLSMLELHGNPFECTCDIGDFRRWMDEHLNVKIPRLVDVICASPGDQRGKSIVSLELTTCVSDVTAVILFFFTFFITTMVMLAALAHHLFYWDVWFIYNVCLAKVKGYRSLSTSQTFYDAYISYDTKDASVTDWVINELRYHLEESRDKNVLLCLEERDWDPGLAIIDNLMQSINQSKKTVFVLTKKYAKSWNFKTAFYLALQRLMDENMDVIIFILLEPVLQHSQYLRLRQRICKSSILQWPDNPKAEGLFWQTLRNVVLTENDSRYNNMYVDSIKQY
# Test: HEK293-Blue-hTLR-8 cells assay
# Format: cell-based
# Details: HEK293-Blue-hTLR8 cells, R848 stimulation, 20 hrs, SEAP reporter; read-out: HEK/hTLR8 IC50
# Source text: A stable HEK293-Blue-hTLR-8 cell line was purchased from InvivoGen (Cat. #: hkb-htlr8, San Diego, California, USA). These cells were originally designed for studying the stimulation of human TLR8 by monitoring the activation of NF-κB. A SEAP (secreted embryonic alkaline phosphatase) reporter gene was placed under the control of the IFN-β minimal promoter fused to five NF-κB and AP-1-binding sites. The SEAP was induced by activating NF-κB and AP-1 via stimulating HEK-Blue hTLR8 cells with TLR8 ligands. Therefore the reporter expression was declined by TLR8 antagonist under the stimulation of a ligand, such as R848, for incubation of 20 hrs. The cell culture supernatant SEAP reporter activity was determined using QUANTI-Blue™ kit (Cat. #: rep-qb1, Invivogen, San Diego, Ca, USA) at a wavelength of 640 nm, a detection medium that turns purple or blue in the presence of alkaline phosphatase.
# HEK293-Blue-hTLR8 cells were incubated at a density of 250,000˜450,000 cells/mL in a volume of 170 μL in a 96-well plate in Dulbecco's Modified Eagle's medium (DMEM) containing 4.5 g/L glucose, 50 U/mL penicillin, […], […], 2 mM L-glutamine, 10% (v/v) heat-inactivated fetal bovine serum with addition of 20 μL test compound in a serial dilution in the presence of final DMSO at 1% and 10 μL of 60 uM R848 in above DMEM, perform incubation under 37° C. in a CO2 incubator for 20 hrs. Then 20 μL of the supernatant from each well was incubated with 180 μL Quanti-blue substrate solution at 37° C. for 2 hrs and the absorbance was read at 620˜655 nm using a spectrophotometer. The signaling pathway that TLR8 activation leads to downstream NF-κB activation has been widely accepted, and therefore similar reporter assay was modified for evaluating TLR8 antagonist.
row,Structure (SMILES),pIC50
1,"CO[C@@H]1CN(c2ccc(C3CN([C@@H]4CCN5[C@@H](C4)CN(c4ccc(C#N)c6ncccc46)C[C@H]5C)C3)cc2)C[C@H]1N [Example 30, 5-[(4R,8R,9aS)-8-[3-[4-[(3R,4R)-3-amino-4-methoxy-pyrrolidin-1-yl]phenyl]azetidin-1-yl]-4-methyl-1,3,4,6,7,8,9,9a-octahydropyrido[1,2-a]pyrazin-2-yl]quinoline-8-carbonitrile]",7.16
2,"C[C@@H]1CN(c2ccc(C#N)c3ncccc23)C[C@H]2C[C@H](c3ccc(N4CCNCC4)nc3)CCN21 [Example 15, 5-[(4R,8R,9aR)-4-methyl-8-(6-piperazin-1-yl-3-pyridyl)-1,3,4,6,7,8,9,9a-octahydropyrido[1,2-a]pyrazin-2-yl]quinoline-8-carbonitrile]",7.10
3,"C[C@@H]1CN(c2ccc(C#N)c3ncccc23)C[C@@H]2C[C@H](c3ccc(N4CCOC[C@@H](N)C4)nc3)CCN21 [Example 23, 5-[(4R,8R,9aS)-8[6-[(6S)-6-amino-1,4-oxazepan-4-yl]-3-pyridyl]-4-methyl-1,3,4,6,7,8,9,9a-octahydropyrido[1,2-a]pyrazin-2-yl]quinoline-8-carbonitrile]",7.10
4,"C[C@@H]1CN(c2ccc(C#N)c3ncccc23)C[C@@H]2C[C@@H](NCc3ccc(N4CCNCC4)cc3)CCN21 [Example 17, 5-[(4R,8S,9aS)-4-methyl-8-[(4-piperazin-1-ylphenyl)methylamino]-1,3,4,6,7,8,9,9a-octahydropyrido[1,2-a]pyrazin-2-yl]quinoline-8-carbonitrile]",7.27
5,"C[C@@H]1CN(c2ccc(C#N)c3ncccc23)C[C@@H]2C[C@@H](c3ccc(CC4CNCCO4)cc3)CCN21 (stereo partly drawn) [Example 26, 5-[(4R,8S,9aS)-4-methyl-8-[4-(morpholin-2-ylmethyl)phenyl]-1,3,4,6,7,8,9,9a-octahydropyrido[1,2-a]pyrazin-2-yl]quinoline-8-carbonitrile]",7.57
6,"C[C@@H]1CN(c2ccc(C#N)c3ncccc23)C[C@@H]2C[C@H](c3ccc(N4CCNCC4)nc3)CCN21 [Example 4, 5-[(4R,8R,9aS)-4-methyl-8-(6-piperazin-1-yl-3-pyridyl)-1,3,4,6,7,8,9,9a-octahydropyrido[1,2-a]pyrazin-2-yl]quinoline-8-carbonitrile]",7.74
7,"[2H]c1ccc2c(N3C[C@@H]4C[C@H](Nc5ccc(C[C@@H]6CNCCO6)cc5)CCN4[C@H](C)C3)ccc(C#N)c2n1 [Example 22, 5-[(4R,8R,9aS)-4-methyl-8-[4-[[(2R)-morpholin-2-yl]methyl]anilino]-1,3,4,6,7,8,9,9a-octahydropyrido[1,2-a]pyrazin-2-yl]-2-deuterio-quinoline-8-carbonitrile]",7.31
8,"C[C@@H]1CN(c2ccc(C#N)c3ncccc23)C[C@@H]2C[C@@H](Oc3cncc(N4CCNCC4)c3)CCN21 [Example 29, 5-[(4R,8S,9aS)-4-methyl-8-[(5-piperazin-1-yl-3-pyridyl)oxy]-1,3,4,6,7,8,9,9a-octahydropyrido[1,2-a]pyrazin-2-yl]quinoline-8-carbonitrile]",8.30
9,"C[C@@H]1CN(c2ccc(C#N)c3ncccc23)C[C@@H]2C[C@@H](Oc3ccc(N4CCNCC4)nc3)CCN21 [Example 16, 5-[(4R,8S,9aS)-4-methyl-8-[(6-piperazin-1-yl-3-pyridyl)oxy]-1,3,4,6,7,8,9,9a-octahydropyrido[1,2-a]pyrazin-2-yl]quinoline-8-carbonitrile]",8.10
10,"CO[C@H]1CN(c2ccc([C@@H]3CCN4[C@@H](C3)CN(c3ccc(C#N)c5ncccc35)C[C@H]4C)cn2)C[C@H]1N [Example 12, 5-[(4R,8R,9aS)-8-[6-[(3R,4S)-3-amino-4-methoxy-pyrrolidin-1-yl]-3-pyridyl]-4-methyl-1,3,4,6,7,8,9,9a-octahydropyrido[1,2-a]pyrazin-2-yl]quinoline-8-carbonitrile]",7.35
